Earlier results, collected in PubChem BioAssay AID1259409 (Chemical Carcinogenesis Research Information System (CCRIS), 2018).

Test system: rodent chemically induced tumor inhibition, incidence and multiplicity
Experiment: CCRIS tumor inhibitor studies
Details: for outcome: Carcinogen: N-BUTYL-N-(4-HYDROXYBUTYL)NITROSAMINE [3817-11-6], Route [Inhibitor]: INTRAGASTRIC, Species: MOUSE, Strain/Sex: C57BL/6/FEMALE, Promoter: NONE; for tumour outcome (control, treated, inhibition, significance): Carcinogen: 7,12-Dimethylbenz(a)anthracene (57-97-6), Route [Inhibitor]: Subcutaneous, Species: Rat, Strain/Sex: Sprague-Dawley/Female, Dose [Carcinogen]: 10 mg/kg once at 50 days of age

CN1CCN(c2c(F)cc3c(=O)c(C(=O)O)cn(CCF)c3c2F)CC1
outcome (Dose [Inhibitor]: 10 MG ONCE/D FOR 1 WK BEGINNING 1 WK PRIOR TO FIRST CARCINOGEN DOSE (STUDY DURATION: 13 WK), Target Tissue: Type of Lesion: URINARY BLADDER: CARCINOMA IN SITU, Dose [Carcinogen]: 0.05% IN DRINKING WATER FOR 8 WK BEGINNING IMMEDIATELY POST LAST INHIBITOR DOSE (STUDY DURATION: 13 WK)): 1, 0, not significant | outcome (Dose [Inhibitor]: 10 MG ONCE/D FOR 1 WK BEGINNING 1 WK PRIOR TO FIRST CARCINOGEN DOSE (STUDY DURATION: 13 WK), Target Tissue: Type of Lesion: URINARY BLADDER: INVASIVE CARCINOMA, Dose [Carcinogen]: 0.05% IN DRINKING WATER FOR 8 WK BEGINNING IMMEDIATELY POST LAST INHIBITOR DOSE (STUDY DURATION: 13 WK)): 0, 0, not significant | outcome (Dose [Inhibitor]: 10 MG ONCE/D FOR 1 WK BEGINNING 1 WK PRIOR TO FIRST CARCINOGEN DOSE (STUDY DURATION: 17 WK), Target Tissue: Type of Lesion: URINARY BLADDER: CARCINOMA IN SITU, Dose [Carcinogen]: 0.05% IN DRINKING WATER FOR 8 WK BEGINNING IMMEDIATELY POST LAST INHIBITOR DOSE (STUDY DURATION: 17 WK)): 1, 0, not significant | outcome (Dose [Inhibitor]: 10 MG ONCE/D FOR 1 WK BEGINNING 1 WK PRIOR TO FIRST CARCINOGEN DOSE (STUDY DURATION: 17 WK), Target Tissue: Type of Lesion: URINARY BLADDER: INVASIVE CARCINOMA, Dose [Carcinogen]: 0.05% IN DRINKING WATER FOR 8 WK BEGINNING IMMEDIATELY POST LAST INHIBITOR DOSE (STUDY DURATION: 17 WK)): 1, 0, not significant | outcome (Dose [Inhibitor]: 10 MG ONCE/D FOR 1 WK BEGINNING 1 WK PRIOR TO FIRST CARCINOGEN DOSE (STUDY DURATION: 21 WK), Target Tissue: Type of Lesion: URINARY BLADDER: CARCINOMA IN SITU, Dose [Carcinogen]: 0.05% IN DRINKING WATER FOR 12 WK BEGINNING IMMEDIATELY POST LAST INHIBITOR DOSE (STUDY DURATION: 21 WK)): 0, 1, not significant | outcome (Dose [Inhibitor]: 10 MG ONCE/D FOR 1 WK BEGINNING 1 WK PRIOR TO FIRST CARCINOGEN DOSE (STUDY DURATION: 21 WK), Target Tissue: Type of Lesion: URINARY BLADDER: INVASIVE CARCINOMA, Dose [Carcinogen]: 0.05% IN DRINKING WATER FOR 12 WK BEGINNING IMMEDIATELY POST LAST INHIBITOR DOSE (STUDY DURATION: 21 WK)): 9, 6, not significant | outcome (Dose [Inhibitor]: 50 MG ONCE/D FOR 1 WK BEGINNING 1 WK PRIOR TO FIRST CARCINOGEN DOSE (STUDY DURATION: 13 WK), Target Tissue: Type of Lesion: URINARY BLADDER: CARCINOMA IN SITU, Dose [Carcinogen]: 0.05% IN DRINKING WATER FOR 8 WK BEGINNING IMMEDIATELY POST LAST INHIBITOR DOSE (STUDY DURATION: 13 WK)): 1, 0, not significant | outcome (Dose [Inhibitor]: 50 MG ONCE/D FOR 1 WK BEGINNING 1 WK PRIOR TO FIRST CARCINOGEN DOSE (STUDY DURATION: 13 WK), Target Tissue: Type of Lesion: URINARY BLADDER: INVASIVE CARCINOMA, Dose [Carcinogen]: 0.05% IN DRINKING WATER FOR 8 WK BEGINNING IMMEDIATELY POST LAST INHIBITOR DOSE (STUDY DURATION: 13 WK)): 0, 0, not significant | outcome (Dose [Inhibitor]: 50 MG ONCE/D FOR 1 WK BEGINNING 1 WK PRIOR TO FIRST CARCINOGEN DOSE (STUDY DURATION: 17 WK), Target Tissue: Type of Lesion: URINARY BLADDER: CARCINOMA IN SITU, Dose [Carcinogen]: 0.05% IN DRINKING WATER FOR 8 WK BEGINNING IMMEDIATELY POST LAST INHIBITOR DOSE (STUDY DURATION: 17 WK)): 1, 0, not significant | outcome (Dose [Inhibitor]: 50 MG ONCE/D FOR 1 WK BEGINNING 1 WK PRIOR TO FIRST CARCINOGEN DOSE (STUDY DURATION: 17 WK), Target Tissue: Type of Lesion: URINARY BLADDER: INVASIVE CARCINOMA, Dose [Carcinogen]: 0.05% IN DRINKING WATER FOR 8 WK BEGINNING IMMEDIATELY POST LAST INHIBITOR DOSE (STUDY DURATION: 17 WK)): 1, 0, not significant | outcome (Dose [Inhibitor]: 50 MG ONCE/D FOR 1 WK BEGINNING 1 WK PRIOR TO FIRST CARCINOGEN DOSE (STUDY DURATION: 21 WK), Target Tissue: Type of Lesion: URINARY BLADDER: CARCINOMA IN SITU, Dose [Carcinogen]: 0.05% IN DRINKING WATER FOR 12 WK BEGINNING IMMEDIATELY POST LAST INHIBITOR DOSE (STUDY DURATION: 21 WK)): 0, 2, not significant | outcome (Dose [Inhibitor]: 50 MG ONCE/D FOR 1 WK BEGINNING 1 WK PRIOR TO FIRST CARCINOGEN DOSE (STUDY DURATION: 21 WK), Target Tissue: Type of Lesion: URINARY BLADDER: INVASIVE CARCINOMA, Dose [Carcinogen]: 0.05% IN DRINKING WATER FOR 12 WK BEGINNING IMMEDIATELY POST LAST INHIBITOR DOSE (STUDY DURATION: 21 WK)): 9, 5, not significant

COCC(=O)[C@@]1(OC(C)=O)CC[C@H]2[C@@H]3CCC4=CC(=O)CCC4=C3[C@@H](c3ccc(N(C)C)cc3)C[C@@]21C
tumour outcome (control, treated, inhibition, significance) (Dose [Inhibitor]: 1 mg administered daily for 28 days, Target Tissue: Type of Lesion: Mammary gland: Adenocarcinoma and papilliary carcinoma, Promoter: None): 12/13 (92%), 9/11 (82%), 11%, ns | tumour outcome (control, treated, inhibition, significance) (Dose [Inhibitor]: 2 mg administered daily for 28 days, Target Tissue: Type of Lesion: Mammary gland: Adenocarcinoma and papillary carcinoma, Promoter: None): 12/13 (92%), 11/12 (92%), 0%, ns | tumour outcome (control, treated, inhibition, significance) (Dose [Inhibitor]: 2 mg administered daily for 28 days, Target Tissue: Type of Lesion: Mammary gland: Adenocarcinoma and papillary carcinoma, Promoter: Progesterone (57-83-0)): 12/13 (92%), 10/11 (91%), 0%, ns | tumour outcome (control, treated, inhibition, significance) (Dose [Inhibitor]: 10 mg administered daily for 28 days, Target Tissue: Type of Lesion: Mammary gland: Adenocarcinoma and papillary carcinoma, Promoter: None): 12/13 (92%), 10/11 (91%), 0%, ns | tumour outcome (control, treated, inhibition, significance) (Dose [Inhibitor]: 10 mg administered daily for 28 days, Target Tissue: Type of Lesion: Mammary gland: Adenocarcinoma and papillary carcinoma, Promoter: Progesterone (57-83-0)): 12/13 (92%), 10/12 (83%), 10%, ns
